Three molecules from US9814758B2, “Inhibitors of apoptosis and uses thereof” (CENTRE NATIONAL DE LA RECHERCHE SCIENTIFIQUE-CNRS, priority 2010, dated 2017) can be followed below.

Data set [1] can be described thus: Stability in 20% mouse serum (reverse-phase HPLC). The data set is classed as in vitro ADME. The settings on record: 37° C.; for remaining at 2 h: 2 h incubation, read-out: peptide still intact; for peptide degradation: after 24 hours. As to the method: FIG. 3: Evaluation of Tat-DAXXp and Pip2b-DAXXp protease ability. (A) Stability measurements of Tat-DAXXp and Pip2b-DAXXp conjugates in fetal bovine serum (FBS, BioWest) and (B) freshly prepared mouse serum (MS). Peptides were incubated with 20% serum at 37° C. for 0 h, 1 h, 2 h, 4 h, 8 h, 24 h, and 48 h, and 50 μl of the incubation mixture was precipitated in 100 μl 10% dichloroacetic acid (DCA) in H2O/CH3CN (50/50). The samples were mixed and kept at −20° C. The precipitated serum proteins were separated by centrifugation (14,000 rpm, 10 minutes) and the supernatant was analyzed by reverse-phase HPLC (measurement of the peak area in mV*sec). n≧2 for each condition.

Data set [2] has as its system C57Bl6 mice, myocardial ischemia-reperfusion. Kind of data set: Myocardial ischemia-reperfusion IR60' (40 min ischemia, 60 min reperfusion). Type of data set: in vivo, mouse. How it is done:
(§1) FIG. 11: In vivo experimental protocol. C57Bl6 mice underwent a surgical protocol of myocardial ischemia-reperfusion (IR). The black box represents the period of ischemia to which the mice were submitted. Infarct size or cell death measurements were performed at the end of surgery for each protocol (indicated by ↑). IR60′: 40 minutes of Ischemia, 60 minutes of Reperfusion. IR24h: 40 minutes Ischemia and 24 hours Reperfusion.
FIG. 12: Cardioprotective effects of Tat-DAXXp (1 mg/kg—IV) in mice subjected to IR60′. Infarct size (in % of area at risk) and internucleosomal DNA fragmentation determined by ELISA were quantified in mice subjected to IR60′ and treated with Tat, Tat-DAXXp or Tat-scrDAXXp (1 mg/kg) as well as with DAXXp (10 mg/kg) (intravenous injection (IV) 5 minutes before reperfusion). Means±SEM were plotted for (A): Area at risk/LV mass (left ventricle), (B): Infarct size (in % of area at risk) and (C): (I/NI ratio) corresponding to the ratio of soluble nucleosome in the ischemic portion versus the non-ischemic portion of LV tissues. Statistical analysis was performed using One-way ANOVA with Neuman-Keuls post test for multiple comparisons (GraphPad Prism software). P<0.05, P<0.01 and P<0.001 versus Tat-DAXXp were noted *, **, and *** respectively. P=ns (not significant) for P>0.05.
FIG. 13: Dose response for Tat-DAXXp and DAXXp in mice subjected to IR60′. Infarct size (in % of area at risk) and internucleosomal DNA fragmentation determined by ELISA were quantified in mice subjected to IR60′ and treated with Tat (1 mg/kg), Tat-DAXXp (0.1, 1 and 10 mg/kg) or DAXXp (0.1, 1 and 10 mg/kg) injected intravenously 5 minutes before reperfusion. Means±SEM were plotted for (A): Area at risk/LV mass (left ventricle), (B): Infarct size (in % of area at risk) and (C): (I/NI ratio) corresponding to the ratio of soluble nucleosome in the ischemic versus the non-ischemic portion of LV tissues.
In a second step, the cardioprotective effects of DAXXp were evaluated in an in vivo model of myocardial ischemia-reperfusion. Acute myocardial ischemia and reperfusion were performed in C57Bl6 mice subjected to a surgical model of reversible coronary occlusion. Male mice (22-28 g) were anesthetized and ventilated via a tracheal intubation using a Harvard rodent respirator. Body temperature was maintained between 36.8° C. and 37.0° C. via a thermo-regulated surgical table. The chest was opened by left lateral thoracotomy and a reversible coronary artery snare occluder was placed around the left coronary artery. Mice were randomly allocated to two different surgical protocols of myocardial ischemia-reperfusion (FIG. 11). At the end of reperfusion, the artery was re-occluded and phtalocyanine blue dye was injected into the left ventricle cavity and allowed to perfuse the non-ischemic portions of the myocardium. To determine the effect of DAXXp on myocardial infarct size, peptides were administered intravenously (caudal vein) 5 minutes before reperfusion during the surgical protocol of ischemia-reperfusion. The control groups were treated with Tat or Pip2b peptide (for CPP alone). The dose of 1 mg/kg was chosen (μmolar range) and dose responses for 0.1 and 10 mg/kg were also tested.
At the end of reperfusion, mice were re-anaesthetized, the coronary ligature definitively tightened, the blue dye injected and the harvested left ventricles were dedicated to infarct size (TTC method, Schwartz et al, J Thromb. Thromb., 2000; 10: 181-187) or DNA fragmentation measurements (Cell death detection ELISA^PLUS kit, Roche Diagnostics) in order to investigate the cardioprotective effects against ischemia-reperfusion injuries.

Data set [3] has the same test system. Kind of data set: Myocardial ischemia-reperfusion IR24h (40 min ischemia, 24 h reperfusion). The data set is classed as in vivo, mouse. The following applies: reperfusion prolonged from 1 hour to 24 hours. As to the method: as §1
FIG. 14: Cardioprotective effects of Tat-DAXXp (1 mg/kg-IV) in mice subjected to IR24h. Infarct size (in % of area at risk) and internucleosomal DNA fragmentation determined by ELISA were quantified in mice subjected to IR24H and treated with Tat, Tat-DAXXp or Tat-scrDAXXp (1 mg/kg) as well as with DAXXp (10 mg/kg) (IV injection 5 minutes before reperfusion). […]
FIG. 15: Dose response for Tat-DAXXp and DAXXp in mice subjected to IR24h. Area at risk and infarct size (in % of area at risk) were measured in mice subjected to IR24h and treated by Tat (1 mg/kg), Tat-DAXXp (0.1, 1 and 10 mg/kg) or DAXXp (0.1, 1 and 10 mg/kg) injected intravenously 5 minutes before reperfusion. […]
In a second step, the cardioprotective effects of DAXXp were evaluated in an in vivo model of myocardial ischemia-reperfusion. […]

Non-standard residues stand in square brackets, D forms with d. Residues, ends and D or L forms follow the SMILES beside them. No end group written: not given here. Ahx = NCCCCCC(=O)O

`CC[C@H](C)[C@H](NC(=O)[C@H](Cc1c[nH]cn1)NC(=O)[C@@H](NC(=O)[C@H](CCCNC(=N)N)NC(=O)CCCCCNC(=O)[C@H](CCCNC(=N)N)NC(=O)[C@H](CCCNC(=N)N)NC(=O)CCCCCNC(=O)[C@H](CCCNC(=N)N)NC(=O)[C@H](CCCNC(=N)N)NC(=O)CCCCCNC(=O)[C@@H](N)CCCNC(=N)N)[C@@H](C)CC)C(=O)N[C@@H](CC(C)C)C(=O)N[C@@H](Cc1ccccc1)C(=O)N[C@@H](CCC(N)=O)C(=O)N[C@@H](CC(N)=O)C(=O)N[C@H](CCCNC(=N)N)C(=O)N[C@@H](CCCNC(=N)N)C(=O)N[C@@H](CCSC)C(=O)N[C@@H](CCCCN)C(=O)N[C@@H](Cc1c[nH]c2ccccc12)C(=O)N[C@@H](Cc1c[nH]cn1)C(=O)N[C@@H](CCCCN)C(=O)N[C@@H](CCCCN)C(=O)N[C@@H](CCCCN)C(=O)N[C@@H](CO)C(=O)N[C@@H](CCCNC(=N)N)C(=O)N[C@@H](CCCCN)C(=O)N[C@@H](CCC(=O)O)C(=O)N[C@@H](CCCCN)C(=O)N[C@@H](CCCCN)C(=O)N[C@@H](CCC(N)=O)C(=O)N[C@H](C(=O)NCC(=O)N[C@@H](CO)C(=O)NCC(=O)N1CCC[C@H]1C(=O)N[C@@H](CC(C)C)C(=O)NCC(N)=O)[C@@H](C)O` [Pip2b-DAXXp, (RXR)3-IHILFQNrRMKWHK-KKSRKEKKQTGSGPLG-NH2] (H-R[Ahx]RR[Ahx]RR[Ahx]RIHILFQN[dR]RMKWHKKKSRKEKKQTGSGPLG-NH2; N-terminus assumed): in data set [1], the remaining at 2 h is greater than 70% and the peptide degradation entry is on record as “all the peptide are degraded”. In addition, the “cardioprotection (infarct size, DNA fragmentation)” value in data set [2] (IR60', data not shown) was “not observed”.
Consider “GRKKRRQRRRPPQKKSRKEKKQTGSGPLG-NH2 [Tat-DAXXp, GRKKRRQRRRPPQ-KKSRKEKKQTGSGPLG-NH2]”, for which, in data set [1], the remaining at 2 h is greater than 70% and the peptide degradation entry is reported as “all the peptide are degraded”. Also, the “specific DNA fragmentation in left ventricles versus Tat-injected mice” value in data set [2] (1 mg/kg IV, IR60') is listed as “drastic decrease”. Further, the “decrease of infarct size versus Tat peptide alone” value in data set [2] (1 mg/kg intravenously 5 min before reperfusion, after 1 hour-reperfusion, p<0.01) was found to be 53.4%. The “dose of maximal effect” value in data set [2] (dose response 0.1, 1 and 10 mg/kg IV, FIG. 13) is reported as 1 mg/kg. Also, the “cardioprotective effects at prolonged reperfusion” value in data set [3] is reported as “maintained”.
In the case of “KKSRKEKKQTGSGPLG-NH2 [DAXXp, KKSRKEKKQTGSGPLG-NH2]”, the “decrease of infarct size” value in data set [2] (10 mg/kg injected alone (without CPP)) is reported as “to the same extent than Tat-DAXXp”.
